Reference: the NIST ThermoML archive (doi:10.1021/je4009987)
± gives the expanded uncertainty stated by the source.

Assay: mn = molality of the nth substance listed, in mol/kg
Conditions: 101 kPa, Liquid; for speed of sound: Sing-around technique in a fixed-path interferometer; for mass density: Vibrating tube method

CCOC(=O)CC(C)=O [ethyl 3-oxobutanoate] + O
Conditions | mass density, 288.15 K [kg/m3] | mass density, 293.15 K [kg/m3] | mass density, 298.15 K [kg/m3] | mass density, 303.15 K [kg/m3] | mass density, 308.15 K [kg/m3] | speed of sound, 288.15 K [m/s] | speed of sound, 293.15 K [m/s] | speed of sound, 298.15 K [m/s] | speed of sound, 303.15 K [m/s] | speed of sound, 308.15 K [m/s]
m1 = 0.076 | 1000.05 ± 2 | 999.128 ± 2 | 997.91 ± 2 | 996.474 ± 2 | 994.809 ± 2 | 1472.6 ± 1.3 | 1487.8 ± 1.3 | 1501.3 ± 1.3 | 1513 ± 1.3 | 1523.1 ± 1.3
m1 = 0.1625 | 1001.1 ± 2 | 1000.13 ± 2 | 998.838 ± 2 | 997.358 ± 2 | 995.64 ± 2 | 1479.2 ± 1.3 | 1493.6 ± 1.3 | 1506.4 ± 1.3 | 1517.4 ± 1.3 | 1526.9 ± 1.3
m1 = 0.2495 | 1002.14 ± 2 | 1001.1 ± 2 | 999.76 ± 2 | 998.22 ± 2 | 996.445 ± 2 | 1485.5 ± 1.3 | 1499.2 ± 1.3 | 1511.2 ± 1.3 | 1521.6 ± 1.3 | 1530.4 ± 1.3
m1 = 0.3767 | 1003.62 ± 2 | 1002.48 ± 2 | 1001.05 ± 2 | 999.44 ± 2 | 997.59 ± 2 | 1494.1 ± 1.3 | 1506.7 ± 1.3 | 1517.7 ± 1.3 | 1527.1 ± 1.3 | 1535 ± 1.3
m1 = 0.4725 | 1004.7 ± 2 | 1003.48 ± 2 | 1002 ± 2 | 1000.32 ± 2 | 998.41 ± 2 | 1500 ± 1.3 | 1511.7 ± 1.3 | 1522 ± 1.3 | 1530.8 ± 1.3 | 1538.1 ± 1.3
m1 = 0.5324 | 1005.38 ± 2 | 1004.1 ± 2 | 1002.58 ± 2 | 1000.86 ± 2 | 998.9 ± 2 | 1503.4 ± 1.3 | 1514.7 ± 1.3 | 1524.5 ± 1.3 | 1532.9 ± 1.3 | 1539.8 ± 1.3
m1 = 0.6848 | 1007.03 ± 2 | 1005.6 ± 2 | 1004 ± 2 | 1002.18 ± 2 | 1000.12 ± 2 | 1511.6 ± 1.3 | 1521.7 ± 1.3 | 1530.5 ± 1.3 | 1537.8 ± 1.3 | 1543.7 ± 1.3
m1 = 0.7843 | 1008.1 ± 2 | 1006.56 ± 2 | 1004.9 ± 2 | 1003.01 ± 2 | 1000.9 ± 2 | 1516.3 ± 1.3 | 1525.7 ± 1.3 | 1533.7 ± 1.3 | 1540.4 ± 1.3 | 1545.8 ± 1.3
m1 = 0.9019 | 1009.31 ± 2 | 1007.65 ± 2 | 1005.93 ± 2 | 1003.94 ± 2 | 1001.76 ± 2 | 1521.4 ± 1.3 | 1529.9 ± 1.3 | 1537.2 ± 1.3 | 1543.1 ± 1.3 | 1547.8 ± 1.3

COC(=O)CC(C)=O [methyl 3-oxobutanoate] + O
Conditions | mass density, 288.15 K [kg/m3] | mass density, 293.15 K [kg/m3] | mass density, 298.15 K [kg/m3] | mass density, 303.15 K [kg/m3] | mass density, 308.15 K [kg/m3] | speed of sound, 288.15 K [m/s] | speed of sound, 293.15 K [m/s] | speed of sound, 298.15 K [m/s] | speed of sound, 303.15 K [m/s] | speed of sound, 308.15 K [m/s]
m1 = 0.0809 | 1000.36 ± 2 | 999.43 ± 2 | 998.205 ± 2 | 996.78 ± 2 | 995.12 ± 2 | 1472.5 ± 1.3 | 1487.7 ± 1.3 | 1501.3 ± 1.3 | 1513.1 ± 1.3 | 1523.2 ± 1.3
m1 = 0.1654 | 1001.65 ± 2 | 1000.66 ± 2 | 999.37 ± 2 | 997.9 ± 2 | 996.2 ± 2 | 1477.3 ± 1.3 | 1491.9 ± 1.3 | 1504.8 ± 1.3 | 1516.1 ± 1.3 | 1525.7 ± 1.3
m1 = 0.285 | 1003.44 ± 2 | 1002.36 ± 2 | 1001 ± 2 | 999.454 ± 2 | 997.68 ± 2 | 1484.7 ± 1.3 | 1498.3 ± 1.3 | 1510.5 ± 1.3 | 1521 ± 1.3 | 1529.9 ± 1.3
m1 = 0.386 | 1004.9 ± 2 | 1003.75 ± 2 | 1002.33 ± 2 | 1000.73 ± 2 | 998.91 ± 2 | 1490.1 ± 1.3 | 1503.1 ± 1.3 | 1514.6 ± 1.3 | 1524.4 ± 1.3 | 1532.7 ± 1.3
m1 = 0.4607 | 1005.98 ± 2 | 1004.75 ± 2 | 1003.3 ± 2 | 1001.65 ± 2 | 999.79 ± 2 | 1494.2 ± 1.3 | 1506.6 ± 1.3 | 1517.6 ± 1.3 | 1527 ± 1.3 | 1534.9 ± 1.3
m1 = 0.5604 | 1007.37 ± 2 | 1006.06 ± 2 | 1004.56 ± 2 | 1002.85 ± 2 | 1000.94 ± 2 | 1499.6 ± 1.3 | 1511.4 ± 1.3 | 1521.7 ± 1.3 | 1530.5 ± 1.3 | 1537.9 ± 1.3
m1 = 0.6367 | 1008.4 ± 2 | 1007.01 ± 2 | 1005.53 ± 2 | 1003.74 ± 2 | 1001.79 ± 2 | 1503 ± 1.3 | 1514.2 ± 1.3 | 1524.1 ± 1.3 | 1532.5 ± 1.3 | 1539.5 ± 1.3
m1 = 0.7871 | 1010.4 ± 2 | 1008.9 ± 2 | 1007.35 ± 2 | 1005.47 ± 2 | 1003.45 ± 2 | 1509.8 ± 1.3 | 1520.2 ± 1.3 | 1529.1 ± 1.3 | 1536.7 ± 1.3 | 1542.9 ± 1.3
m1 = 0.8429 | 1011.13 ± 2 | 1009.58 ± 2 | 1008 ± 2 | 1006.11 ± 2 | 1004.04 ± 2 | 1512.2 ± 1.3 | 1522.2 ± 1.3 | 1530.9 ± 1.3 | 1538.1 ± 1.3 | 1544 ± 1.3
